In patent US8524705B2, “2-oxo-2-(2-phenyl-5,6,7,8-tetrahydro-indolizin-3-yl)-acetamide derivatives and related compounds as antifungal agents” (F2G Limited British Body Corporate, priority 2007, dated 2013) one finds MIC data, which are given here for nine molecules.

Values after ≈ are worked out from the molar mass of the structure shown.

Holding throughout (format): cell-based
What all share (conditions): banded into grades

For one test, the system named is Aspergillus flavus. As to the kind of experiment: Measurement of Minimum Inhibitory Concentrations (MICs), A. flavus. The procedure:
(§1) Between 1 and 5 mgs of compound were accurately weighed out into a sterile Eppendorf tube. The compound was dissolved in DMSO to give a solution containing 5 mg/mL. Tubes were stored at −20° C. until required. On the day of testing thawed solutions were vortex mixed to ensure homogeneity. 30 μL of solution was removed and added to 570 μL of sterile water in a separate sterile Eppendorf. The thoroughly mixed solution was used to prepare a series of doubling dilutions in water, in a deep well plate. […] replicate plates were prepared using a Minitrak by aspirating […] from each well into eleven clear polystyrene 96 well plates. Spores of Aspergillus spp. (Aspergillus fumigatus [two strains], Aspergillus terreus [two strains], Aspergillus niger and Aspergillus flavus) were harvested from cultures grown on Sabarauds agar for 5 days, and resuspended in PBS/Tween 80 to approx 1×10^7 cfu/mL. Each organism suspension was diluted in YAG medium (1% glucose, 1% ammonium chloride and 0.5% yeast extract) to 0.5-2×10^4 cfu/mL. 80 μL of an organism suspension was added to each well of the plate containing drug dilutions. This produced MIC plates with a drug range 50-0.05 mg/L and organism inocula of 1−2×10^4 cfu/mL for Aspergillus spp. All plates were incubated for 24 hrs at 35° C. Growth was assessed by monitoring the optical density at 485 nm for each well. The MIC of a compound is the lowest drug concentration that inhibits growth of an organism by >70% compared with a drug free control. MICs are recorded as mg/L. In cases where the MIC of an organism is >=0.05 mg/L the MIC is repeated using a concentration range of 0.5-0.0005 mg/L. Other growth media can be used for susceptibility testing, and the activity of the described compounds was also assessed in RPMI medium containing 2% glucose, and 0.135M MOPS buffer. MIC tests in YAG medium have more clear-cut endpoints and have slightly lower MICs than those performed in RPMI medium. The following organisms were tested: Aspergillus flavus, Aspergillus fumigatus AF293 and AF210, Aspergillus niger and Aspergillus terreus AT4 and AT49.

The subject of test [1] is Aspergillus fumigatus AF293. As to the kind of experiment: Measurement of Minimum Inhibitory Concentrations (MICs), A. fumigatus. The procedure:
as §1

The test system of test [2] is Aspergillus fumigatus AF210. The test is described as follows: Measurement of Minimum Inhibitory Concentrations (MICs), A. fumigatus 210. The procedure: as §1
A further test has as its system Aspergillus terreus AT49. The test is described as follows: Measurement of Minimum Inhibitory Concentrations (MICs), A. terreus 49. How it is done: as §1
The test system of a further test is Aspergillus terreus AT4. The test is described as follows: Measurement of Minimum Inhibitory Concentrations (MICs), A. terreus. How it is done:
as §1

A further test deals with Aspergillus niger. The test is described as follows: Measurement of Minimum Inhibitory Concentrations (MICs), A. niger. The procedure:
as §1

Where [3] appears, read: RPMI medium containing 2% glucose, 0.135M MOPS buffer.
Setting [4] is: YAG medium, 24 hrs at 35° C., >70% growth inhibition.

For the molecule `Cc1ccc(N2CCN(c3ccc(NC(=O)C(=O)c4c(-c5ccccc5)cc5n4CCCC5)cc3)CC2)nc1` [Example 16, N-{4-[4-(5-Methyl-pyridin-2-yl)-piperazin-1-yl]-phenyl}-2-oxo-2-(2-phenyl-5,6,7,8-tetrahydro-indolizin-3-yl)-acetamide], the MIC (against Aspergillus flavus (setting [3]); in the test on Aspergillus flavus (setting [4]); in test [1] (setting [3]); in test [1] (setting [4]); in test [2] (setting [3]); in test [2] (setting [4])) was less than 1 µg/mL throughout. Also, the MIC against Aspergillus terreus AT49 (setting [3]), with Aspergillus terreus AT49 (setting [4]), in the test with Aspergillus terreus AT4 (setting [3]), against Aspergillus terreus AT4 (setting [4]), in the test with Aspergillus niger (setting [3]) and against Aspergillus niger (setting [4]) was less than 1 µg/mL in each case.

Regarding `Cc1cc(OCCOc2ccc(NC(=O)C(=O)c3c(-c4ccccc4)cc4n3CCCC4)cc2)cc(C)n1` [Example 14, N-{4-[2-(2,6-Dimethyl-pyridin-4-yloxy)-ethoxy]-phenyl}-2-oxo-2-(2-phenyl-5,6,7,8-tetrahydro-indolizin-3-yl)-acetamide], the MIC (usually the lowest concentration found to suppress growth) in the test on Aspergillus flavus (setting [3]) is greater than 10 µg/mL; in the test on Aspergillus flavus (setting [4]) it was 1 to 10 µg/mL (≈ 1.96 to 19.6 µM); in test [1] (setting [3]), 1 to 10 µg/mL (≈ 1.96 to 19.6 µM); in test [1] (setting [4]), 1 to 10 µg/mL (≈ 1.96 to 19.6 µM); in test [2] (setting [3]), 1 to 10 µg/mL (≈ 1.96 to 19.6 µM); in test [2] (setting [4]) it was 1 to 10 µg/mL (≈ 1.96 to 19.6 µM). Moreover, the minimal inhibitory concentration (MIC) is less than 1 µg/mL with Aspergillus terreus AT49 (setting [3]); less than 1 µg/mL against Aspergillus terreus AT49 (setting [4]); less than 1 µg/mL in the test on Aspergillus terreus AT4 (setting [3]); 1 to 10 µg/mL (≈ 1.96 to 19.6 µM) with Aspergillus terreus AT4 (setting [4]); 1 to 10 µg/mL (≈ 1.96 to 19.6 µM) with Aspergillus niger (setting [3]); 1 to 10 µg/mL (≈ 1.96 to 19.6 µM) in the test on Aspergillus niger (setting [4]).

Consider `Cc1cc(C)nc(N2CCN(c3ccc(NC(=O)C(=O)c4c(C5CCCC5)cc5n4CCCC5)cc3)CC2)c1` [Example 4, 2-(2-cyclopentyl-5,6,7,8-tetrahydro-indolizin-3-yl)-N-{4-[4-(4,6-dimethyl-pyridin-2-yl)-piperazin-1-yl]-phenyl}-2-oxo-acetamide], for which the MIC (against Aspergillus flavus (setting [3]); with Aspergillus flavus (setting [4]); in test [1] (setting [3]); in test [1] (setting [4]); in test [2] (setting [3]); in test [2] (setting [4])) was less than 1 µg/mL throughout. In addition, the MIC against Aspergillus terreus AT49 (setting [3]), against Aspergillus terreus AT49 (setting [4]), against Aspergillus terreus AT4 (setting [3]), in the test on Aspergillus terreus AT4 (setting [4]), with Aspergillus niger (setting [3]) and in the test on Aspergillus niger (setting [4]) was less than 1 µg/mL each time.

For the molecule `Cc1cc(C)nc(N2CCN(c3ccc(NC(=O)C(=O)c4c(-c5ccccc5)cc5n4CCCC5)c(C)c3)CC2)c1` [Example 20, N-{4-[4-(4,6-Dimethyl-pyridin-2-yl)-piperazin-1-yl]-2-methyl-phenyl}-2-oxo-2-(2-phenyl-5,6,7,8-tetrahydro-indolizin-3-yl)-acetamide], the MIC (with Aspergillus flavus (setting [3]); in the test on Aspergillus flavus (setting [4]); in test [1] (setting [3]); in test [1] (setting [4]); in test [2] (setting [3]); in test [2] (setting [4])) was less than 1 µg/mL in each case. Moreover, the MIC in the test on Aspergillus terreus AT49 (setting [3]), against Aspergillus terreus AT49 (setting [4]), with Aspergillus terreus AT4 (setting [3]), against Aspergillus terreus AT4 (setting [4]), against Aspergillus niger (setting [3]) and against Aspergillus niger (setting [4]) was less than 1 µg/mL throughout.

As for `COc1cc(C)nc(N2CCN(c3ccc(NC(=O)C(=O)c4c(-c5ccccc5)cc5n4CCCC5)cc3)CC2)c1` [Example 8, N-{4-[4-(4-Methoxy-6-methyl-pyridin-2-yl)-piperazin-1-yl]-phenyl}-2-oxo-2-(2-phenyl-5,6,7,8-tetrahydro-indolizin-3-yl)-acetamide], the MIC in the test on Aspergillus flavus (setting [3]) was 1 to 10 µg/mL (≈ 1.82 to 18.2 µM); against Aspergillus flavus (setting [4]), less than 1 µg/mL; in test [1] (setting [3]), less than 1 µg/mL; in test [1] (setting [4]) it was less than 1 µg/mL; in test [2] (setting [3]), 1 to 10 µg/mL (≈ 1.82 to 18.2 µM); in test [2] (setting [4]) it was less than 1 µg/mL. Further, the MIC with Aspergillus terreus AT49 (setting [3]) is less than 1 µg/mL; in the test on Aspergillus terreus AT49 (setting [4]), less than 1 µg/mL; in the test with Aspergillus terreus AT4 (setting [3]), less than 1 µg/mL; against Aspergillus terreus AT4 (setting [4]) it was less than 1 µg/mL; against Aspergillus niger (setting [3]), 1 to 10 µg/mL (≈ 1.82 to 18.2 µM); against Aspergillus niger (setting [4]), 1 to 10 µg/mL (≈ 1.82 to 18.2 µM).

As to `Cc1cc(C)nc(N2CCN(c3ccc(NC(=O)C(=O)c4c(C5CCN(C)CC5)cc5n4CCCC5)cc3)CC2)c1` [Example 11, N-{4-[4-(4,6-Dimethyl-pyridin-2-yl)-piperazin-1-yl]-phenyl}-2-[2-(1-methyl-piperidin-4-yl)-5,6,7,8-tetrahydro-indolizin-3-yl]-2-oxo-acetamide], the MIC (against Aspergillus flavus (setting [3]); with Aspergillus flavus (setting [4]); in test [1] (setting [3]); in test [1] (setting [4]); in test [2] (setting [3]); in test [2] (setting [4])) was greater than 10 µg/mL throughout. Also, the MIC in the test with Aspergillus terreus AT49 (setting [3]), against Aspergillus terreus AT49 (setting [4]), against Aspergillus terreus AT4 (setting [3]), with Aspergillus terreus AT4 (setting [4]), in the test on Aspergillus niger (setting [3]) and against Aspergillus niger (setting [4]) was greater than 10 µg/mL throughout.

`O=C(Nc1ccc2c(c1)OCC2)C(=O)c1c(-c2ccccc2)cc2n1CCCC2` [Example 32, N-(2,3-Dihydro-benzofuran-6-yl)-2-oxo-2-(2-phenyl-5,6,7,8-tetrahydro-indolizin-3-yl)-acetamide]: the MIC in the test with Aspergillus flavus (setting [3]) was 1 to 10 µg/mL (≈ 2.59 to 25.9 µM); against Aspergillus flavus (setting [4]), less than 1 µg/mL; in test [1] (setting [3]), 1 to 10 µg/mL (≈ 2.59 to 25.9 µM); in test [1] (setting [4]) it was less than 1 µg/mL; in test [2] (setting [3]), 1 to 10 µg/mL (≈ 2.59 to 25.9 µM); in test [2] (setting [4]), less than 1 µg/mL. Also, the MIC in the test on Aspergillus terreus AT49 (setting [3]), against Aspergillus terreus AT49 (setting [4]), in the test on Aspergillus terreus AT4 (setting [3]), against Aspergillus terreus AT4 (setting [4]), in the test on Aspergillus niger (setting [3]) and against Aspergillus niger (setting [4]) was less than 1 µg/mL in each case.

As for `Cc1cc(C)nc(N2CCN(c3ccc(NC(=O)C(=O)c4c(-c5ccccc5)cc5n4CCCC5)c(Cl)c3)CC2)c1` [Example 30, N-{2-Chloro-4-[4-(4,6-dimethyl-pyridin-2-yl)-piperazin-1-yl]-phenyl}-2-oxo-2-(2-phenyl-5,6,7,8-tetrahydro-indolizin-3-yl)-acetamide], the MIC (against Aspergillus flavus (setting [3]); against Aspergillus flavus (setting [4]); in test [1] (setting [3]); in test [1] (setting [4]); in test [2] (setting [3]); in test [2] (setting [4])) was less than 1 µg/mL each time. The MIC with Aspergillus terreus AT49 (setting [3]), in the test on Aspergillus terreus AT49 (setting [4]), against Aspergillus terreus AT4 (setting [3]), against Aspergillus terreus AT4 (setting [4]), with Aspergillus niger (setting [3]) and with Aspergillus niger (setting [4]) was less than 1 µg/mL throughout.

For `O=C(Nc1cccc2ccccc12)C(=O)c1c(-c2ccccc2)cc2n1CCCC2` [Example 28, N-Naphthalen-1-yl-2-oxo-2-(2-phenyl-5,6,7,8-tetrahydro-indolizin-3-yl)-acetamide], the MIC was less than 1 µg/mL against Aspergillus flavus (setting [3]); less than 1 µg/mL against Aspergillus flavus (setting [4]); greater than 10 µg/mL in test [1] (setting [3]); less than 1 µg/mL in test [1] (setting [4]); greater than 10 µg/mL in test [2] (setting [3]); less than 1 µg/mL in test [2] (setting [4]). For the same molecule, the MIC against Aspergillus terreus AT49 (setting [3]), in the test with Aspergillus terreus AT49 (setting [4]), with Aspergillus terreus AT4 (setting [3]), in the test on Aspergillus terreus AT4 (setting [4]), against Aspergillus niger (setting [3]) and in the test on Aspergillus niger (setting [4]) was less than 1 µg/mL in each case.
